# Assay results as given in patent US20250206708A1, “AN OXAZIRIDINE PLATFORM FOR TARGETING FUNCTIONAL ALLOSTERIC METHIONINE SITES” (Novartis AG, priority 2022, published 2025).
# Test system: CDK4
# Assay: Western blot of Rb phosphorylation (S780, S807/811) as cellular CDK4 activity
# Assay type: cell-based, human
# Conditions: serum-synchronized MCF-7 cells, dose of 500 μM
# Method: Cells were synchronized to G1 via serum starvation. Cells were plated at 50% confluency and allowed to adhere overnight in serum-containing media. The next morning, the cells were gently washed twice with HBSS, and serum-free media was added. Cells were allowed to incubate an additional […], […]. Final cell confluency should remain below 75% for optimal results.
# Cells were seeded in full media at 8 e5 cells/well in a 6-well plate. They were then serum-synchronized, as outlined in Example 15, and treated with compound as described previously. Cells were monitored by eye for cell death and harvested once high-dose cells were round but not detached. Cells were transferred to ice and washed twice gently with 1 mL ice-cold PBS. 10 mL of lysis buffer was prepared by dissolved a protease-inhibitor table (Pierce; cat no. A32953) and a phosphatase-inhibitor tablet (Roche; cat no. 4906845001) in 10 mL PBS (1% Triton X-100). Cells were scraped to harvest, transferred to 1.5 mL Eppendorf tubes, and incubated at 4° C. for 30 min on a rotator. Samples were spun at 5000×g for 10 min to clarify lysate. Supernatant was transferred to a new tube and protein concentration quantified via BCA assay (Pierce; cat no. 23225). Samples were normalized to the lowest concentration using chilled lysis buffer. […]
row,Compound,signal from pRb antibodies (cellular CDK4 activity)
1,C#CCOC(=O)N1C[C@@H]2CN(C(=O)N3OC3c3ccccc3)C[C@@H]2C1 (stereo partly shown) [Compound 300],marked decrease in signal

# Test system: not given
# Assay: not given
# Conditions: sulfimine adduct; obtained from previous report; the values are: ln(kobs), kobs in 1/h; cited from earlier work
row,Compound,Rate of Hydrolysis (In(kobs))
1,CS(C)=NC(=O)N1CCCCC1,-1.81
2,CS(C)=NC(=O)N1CCCC1,-0.96
3,CS(C)=NC(=O)NC(C)(C)C,-0.28
4,CS(C)=NC(=O)NCC(C)(C)C,-0.15
5,CC(C)CNC(=O)N=S(C)C,-0.085
6,CS(C)=NC(=O)NC1CCCCC1,0.032
7,CC(C)NC(=O)N=S(C)C,0.044
8,CCNC(=O)N=S(C)C,0.17
9,CS(C)=NC(=O)NC(c1ccccc1)c1ccccc1,0.24
10,CS(C)=NC(=O)NCc1ccccc1,0.29
11,CS(C)=NC(=O)NCC(F)(F)F,0.53
12,CCOC(=O)N=S(C)C,1.69
